# Data as given in ChEMBL document CHEMBL5046247, “Hexahydroazulene-2(1H)-one Sesquiterpenoids with Bridged Cyclobutane, Oxetane, and Tetrahydrofuran Rings from the Stems of Daphne papyracea with α-Glycosidase Inhibitory Activity” (J Nat Prod, 2022).
# Test: Inhibition of Saccharomyces cerevisiae alpha-glucosidase assessed as reduction in PNP formation using alpha-PNPG as substrate incubated for 30 mins by microplate reader assay
row,SMILES,IC50 [µM]
1,O=C(CC[C@H](O)C(=O)c1ccc(O)cc1)c1ccccc1,139
2,CC1=C2[C@@H](O)[C@@]3(C)CC(=O)[C@@]4(C)[C@]2(CC1=O)C[C@]43C,159
3,CO[C@@H](CCc1ccccc1)CC(=O)c1ccccc1,145
4,C[C@H]1O[C@H](O[C@H]2[C@H](O)[C@@H](O)[C@@H](O[C@H]3[C@H](O)[C@@H](O)C(O)O[C@@H]3CO)O[C@@H]2CO)[C@H](O)[C@@H](O)[C@@H]1N[C@H]1C=C(CO)[C@@H](O)[C@H](O)[C@H]1O (some centres not stated) [ACARBOSE],578

# Now those with a lower IC50, led by results:
row,IC50 [µM],SMILES
1,126,O=C(CCCCc1ccccc1)c1ccc(O)cc1
2,102,CC1=C2C[C@H](C(C)C)C[C@@H]3O[C@@]2(CC1=O)[C@@]3(C)O
3,43.3,O=C(/C=C/CCc1ccccc1)c1ccc(O)cc1
